Data taken from US20130245275A1, “PHENYL DIAMIDES AND A PHARMACEUTICAL PREPARATION COMPRISING PHENYL DIAMIDES” (Rheinische Friedrich-Wilhelms Universitaet Bonn, priority 2010, published 2013).
Entries after “also recorded” stand apart in the source; their conditions may differ.

What was measured:
[1] = target: T1, sec7-domain of cytohesin-2 (ARNO) (Homo sapiens, UniProt Q99418); test: guanine nucleotide exchange assay (GDP/GTP exchange on [Δ17]ARF1, tryptophan fluorescence); format: biochemical; conditions: isolated Sec-7 domain, each experiment at least 8 times, read-out: IC50 values measured for the isolated Sec-7 domain of cytohesin-2
T1 construct: ARNO-Sec7 (amino acids 50-255 of ARNO) were expressed in Escherichia coli; made in house; host or cells: Escherichia coli
T1 sequence (Q99418 50-255): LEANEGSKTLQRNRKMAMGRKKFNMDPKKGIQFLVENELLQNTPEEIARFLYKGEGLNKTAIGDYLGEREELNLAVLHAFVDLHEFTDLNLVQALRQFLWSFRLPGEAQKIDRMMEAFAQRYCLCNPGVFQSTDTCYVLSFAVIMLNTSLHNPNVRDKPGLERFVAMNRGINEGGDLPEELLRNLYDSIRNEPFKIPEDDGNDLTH
Procedure: The inhibition of the exchange activity of the sec7-domain of cytohesin-2 (ARNO) of the phenyl diamides according to formulas (5) to (18) was determined by a guanine nucleotide exchange assay.
The sec7-domain of cytohesin-2 (ARNO) and [Δ17]ARF1, a mutant of the ADP-ribosylation factor (ARF) protein, were subcloned into pET15 vectors (Novagen) as described in Hafner, M. et al. Nature 444, 941-944 (2006). N-terminal truncated [Δ17]ARF1 (amino acids 18-181), lacking the first 17 amino acids and ARNO-Sec7 (amino acids 50-255 of ARNO) were expressed in Escherichia coli and purified by Ni-NTA chromatography (Ni-NTA agarose, Qiagen).
The exchange from […] (GDP) to […] (GTP) induces a conformation change of the ribosylation factor, as a result of which the fluorescence of a tryptophan radical of the protein is increased. GDP/GTP exchange was measured on [Δ17]ARF1 by tryptophan fluorescence because a large increase in intrinsic fluorescence of ARF occurs upon exchange of GDP for GTP. All measurements were performed in PBS (137 mM NaCl, 2.7 mM KCl, 10.2 mM Na2HPO4, 1.8 mM KH2PO4) pH 7.4, 3 mM MgCl2 at 37° C.
[Δ17]ARF1 (1 μM) in PBS without MgCl2 was preincubated with 80 μM GDP in the presence of 2 mM ethylenediaminetetraacetic acid (EDTA) for 15 minutes. The bound GDP was stabilized by addition of MgCl2 at a final concentration of 3 mM and incubation for 5 minutes. For each exchange reaction 250 nM [Δ17]ARF1 was mixed with 10 nM ARNO-Sec7 (total volume 200 μl) in the absence or presence of the phenyl diamides according to formulas (5) to (18). The reaction was started by injection of 50 μM GTP.
The tryptophan fluorescence was measured at excitation and emission wavelength of 280 nm and 340 nm respectively. All fluorescent measurements were performed with a Varioskan microplate reader (Thermo Scientific), in 96-well plates. For analysis all data were fitted by linear regression.
The relative exchange rate was determined by comparing the initial linear rise of the fluorescence signal (exchange rate) in the presence of 2.5 μM of the phenyl diamides according to formulas (5) to (18) with the exchange rate in the presence of the solvent Dimethyl sulfoxide (DMSO), 0.4% end concentration, only. A further control was performed with the control compound according to formula (XH1009) as indicated below: […]
Further, the IC50 value of the inhibition of the sec7-domain of the isolated cytohesin-2 was determined. The IC50 value was determined by plotting the initial linear rise of the fluorescence signal against the added concentrations of the amide. The IC50 value corresponds to the concentration of the phenyl diamides at which the activity of the protein is reduced to half. The lower the IC50 value, the more strongly the phenyl diamide inhibits the sec7-domain.

[2] = tested on: U87 wt; test: glioblastoma proliferation assay (MTT), U87 wt; format: cell-based; conditions: Homo sapiens, U87WT; for inhibition at 0.25 µM: 250 nM, 72 h, vs DMSO control, read-out: inhibitory effect on cell proliferation as compared to control; for IC50: 72 hours, at least 3 times, read-out: IC50 values of the inhibition of the proliferation in the cell line U87 wt
Procedure: (§1) The effect of the phenyl diamides according to formulas (5) to (18) on the proliferation of Glioblastoma cells was tested in two pairs of established human glioblastoma cell lines, Gli36 and U87. Human Gli36 wt, U87 wt and U87 EGFRvIII cells were a gift from Prof. Dr. Andreas H. Jacobs, European Institute for Molecular Imaging, Munster, Germany. The cells were maintained in DMEM (PAA) supplemented with 10% fetal calf serum (FCS, Lonza), 1% Penicillin/Streptomycin (PAA) and 110 μg/ml Sodiumpyruvat (Sigma-Aldrich) and were grown at 37° C., 5% CO2.
(§2) 3000 cells per 96 well were seeded into a clear, flat bottom 96 well plate (TPP). After 24 hours the cells were washed twice in 1×DPBS (PAA) and treated with 250 nM of the phenyl diamides according to formulas (5) to (18) in DMEM (PAA) supplemented with 1% FCS (Lonza), 1% Penicillin/Streptomycin (PAA) and 110 μg/ml Sodiumpyruvat (Sigma-Aldrich). Controls were treated with Dimethyl sulfoxide (DMSO) as solvent in an end concentration of 0.4% (v/v). A further control was performed with the control compound according to formula (XH1009). Medium was changed daily.
(§3) After 72 hours cell proliferation was quantified by using a commercially available 3-(4,5-dimethylthiazol-2-yl)-2,5diphenyltetrazolium bromide (MTT) assay (Cell Titer 96® Non-Radioactive Cell Proliferation Assay, Promega) as described in the manufacture's protocol. Briefly, 15 μl of Dye solution was added directly into the 100 μl media of the cells. After 4 hours incubation at 37° C., 5% CO2, 100 μl solubilization solution was added to solubilize the formazan product and the absorbance at 570 nm was measured in a Varioscan microplate reader (Thermo Scientific). All assays were performed at least in triplicates. For calculation of the relative proliferation rate/cell number the mean absorbance in the solvent DMSO only treated cells was set as 1. Results are given as the mean+/−standard error.
(§4) The FIGS. 2 and 3 show the relative cell numbers in the wild type glioblastoma cell line U87 wt (FIG. 2) and Gli36 wt (FIG. 3) normalized to the DSMO treated control after 72 h incubation with the respective phenyl diamides according to formulas (5) to (18), the DSMO treated control compound determined with a MTT proliferation essay. Data were normalized with the exchange in the solvent (DMSO) only control set as 1 and represent the mean values of duplicates, error bars correspond to standard error of the mean (SEM).
(§5) U87 wt and U87 EGFRvIII cells were a gift from Prof. Dr. Andreas H. Jacobs, European Institute for Molecular Imaging, Münster, Germany. The cells were maintained in DMEM (PAA) supplemented with 1% FCS (Lonza), 1% Penicillin/Streptomycin (PAA) and 110 μg/ml Sodiumpyruvat (Sigma-Aldrich) and were grown at 37° C., 5% CO2.
as §2, with “300” for “3000”, “concentrations ranging from 2.5” for “250”, “nM to 2 μM” for “nM”, “(18) or 5 μM of the control compound (XH1009)” for “(18)”, “(v/v).” for “(v/v). A further control was performed with the control compound according to formula (XH1009).”
(§6) Further, the IC50 values of the inhibition of the proliferation was determined. The IC50 value was determined by plotting the relative cell number against the added concentrations of the amide. The IC50 value corresponds to the concentration of the phenyl diamides at which the proliferation is reduced to half. The lower the IC50 value, the more strongly the phenyl diamide inhibits proliferation.

[3] = tested on: Gli36 wt; test: glioblastoma proliferation assay (MTT), Gli36 wt; format: cell-based; conditions: Homo sapiens, 250 nM, 72 h, vs DMSO control, read-out: inhibitory effect on cell proliferation as compared to control
Procedure: as §1, §2, §3, §4

[4] = tested on: U87 EGFRvIII; test: glioblastoma proliferation assay (MTT), U87 EGFRvIII; selectivity of the inhibition; format: cell-based, human; conditions: for IC50: Homo sapiens, U87 EGFRvIII, 72 hours, MTT, at least 3 times, read-out: IC50 values of the inhibition of the proliferation in the cell line U87 EGFRvIII; for selectivity of the inhibition of the EGFRvIII dependent cell proliferation: U87 EGFRvIII compared with parental U87 wt
Procedure: as §5
as §2, with “300” for “3000”, “concentrations ranging from 2.5” for “250”, “nM to 2 μM” for “nM”, “(18) or 5 μM of the control compound (XH1009)” for “(18)”, “(v/v).” for “(v/v). A further control was performed with the control compound according to formula (XH1009).”
as §3, §6

[5] = tested on: glioblastoma cells; test: glioblastoma cell proliferation, cell line not stated (summary statements); format: cell-based; conditions: read-out: IC50 for the proliferation inhibition

SMILES	IC50 [1] [nM]	inhibition at 0.25 µM [2] [%]	IC50 [2] [nM]	inhibition at 0.25 µM [3] [%]	IC50 [4] [nM]	selectivity of the inhibition of the EGFRvIII dependent cell proliferation [4]	inhibition of proliferation of EGFRvIII-cells relative to parental cell line ([4]; U87 EGFRvIII vs parental U87 wt, FIG. 4B)	IC50 [5] [nM]
CC(C)(C)c1ccc(C(=O)Nc2ccc(NC(=O)c3ccccc3[N+](=O)[O-])cc2)cc1 [formula (5), N-{4-[(4-tert-butylbenzoyl)amino]phenyl}-2-nitrobenzamide]	1180	30 to 50	168	30 to 50	46	–	–	–
CC(C)(C)c1ccc(C(=O)Nc2ccc(NC(=O)c3cccc(Cl)c3)cc2)cc1 [formula (6), N-{4-[(4-tert-butylbenzoyl)amino]phenyl}-3-chlorobenzamide]	790	30 to 50	243	30 to 50	67	–	–	–
CC(C)(C)c1ccc(C(=O)Nc2ccc(NC(=O)c3ccc(Br)o3)cc2)cc1 [formula (7)]	4570	–	1370	–	198	selectively inhibited the proliferation of the U87 EGFRvIII-containing cell line; also recorded: selectivity for the mutation EGFR variant III (EGFRvIII)	–	–
Cc1ccccc1C(=O)Nc1ccc(NC(=O)c2ccc(C(C)(C)C)cc2)cc1 [formula (8)]	1190	> 50	118	> 50	148	–	–	–
CC(C)(C)c1ccc(C(=O)Nc2ccc(NC(=O)c3ccc(F)cc3)cc2)cc1 [formula (9)]	2100	30 to 50	89	30 to 50	372	–	–	–
CC(C)(C)c1ccc(C(=O)Nc2ccc(NC(=O)c3ccc([N+](=O)[O-])cc3)cc2)cc1 [formula (10)]	440	> 50	28	> 50	83	selectivety for the inhibition of the parental U87 wt cell line	–	–
CC(C)(C)c1ccc(C(=O)Nc2ccc(NC(=O)c3ccccc3Cl)cc2)cc1 [formula (11)]	2580	> 50	106	> 50	126	–	–	–
Cc1ccc(C(=O)Nc2ccc(NC(=O)c3ccc(C(C)(C)C)cc3)cc2)c(C)c1 [formula (12)]	1860	–	367	–	84	–	–	–
CC(C)(C)c1ccc(C(=O)Nc2ccc(NC(=O)c3ccncc3)cc2)cc1 [formula (13)]	7270	–	2090	–	186	selectively inhibits the EGFRvIII expressing U87 cell line; also recorded: selectively inhibited the proliferation of the U87 EGFRvIII-containing cell line; also recorded: selectivity for the mutation EGFR variant III (EGFRvIII)	more than 10 fold	–
Cc1ccc(C(=O)Nc2ccc(NC(=O)c3ccc(C(C)(C)C)cc3)cc2)cc1 [formula (14)]	1760	> 50	–	> 50	–	–	–	–
CC(C)(C)c1ccc(C(=O)Nc2ccc(NC(=O)c3ccccc3F)cc2)cc1 [formula (15)]	1770	–	–	–	–	–	–	–
CC(C)(C)c1ccc(C(=O)Nc2ccc(NC(=O)/C=C/c3ccco3)cc2)cc1 [formula (16), 4-tert-butyl-N-[4-[[(E)-3-furan-2-ylprop-2-enoyl]amino]phenyl]-benzamide]	3750	–	958	–	435	no selectivety	–	–
CC(C)(C)c1ccc(C(=O)Nc2ccc(NC(=O)c3ccc4c(c3)OCO4)cc2)cc1 [formula (17)]	2690	–	922	–	224	selectively inhibited the proliferation of the U87 EGFRvIII-containing cell line; also recorded: selectivity for the mutation EGFR variant III (EGFRvIII)	–	–
CC(C)(C)c1ccc(C(=O)Nc2ccc(NC(=O)c3ccc4c(c3)OCCO4)cc2)cc1 [formula (18)]	1340	–	297	–	105	–	–	< 2000
